This is an account of results in patent publication US4532255A, “Amidine compounds and anticomplement agent comprising same” (Torii & Co., Ltd., priority 1980, dated 1985).

SMILES strings stand for the structures. Read-outs that look alike come from different tables or passages of the source.

As usually defined, the inhibition is the change of the read-out against control, counted positive when it falls.

Assay [1] concerns the target T1, C1r (Homo sapiens, UniProt P00736).
T1 sequence (P00736 464-705 limits assumed): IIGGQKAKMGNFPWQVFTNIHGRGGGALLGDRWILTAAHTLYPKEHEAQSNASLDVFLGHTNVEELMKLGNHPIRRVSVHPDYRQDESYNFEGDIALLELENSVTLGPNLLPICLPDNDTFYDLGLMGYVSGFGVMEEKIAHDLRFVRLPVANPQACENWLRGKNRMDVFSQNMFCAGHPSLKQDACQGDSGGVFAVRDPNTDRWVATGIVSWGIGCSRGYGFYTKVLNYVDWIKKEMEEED
T1 sequence (P00736 18-463 partner limits assumed): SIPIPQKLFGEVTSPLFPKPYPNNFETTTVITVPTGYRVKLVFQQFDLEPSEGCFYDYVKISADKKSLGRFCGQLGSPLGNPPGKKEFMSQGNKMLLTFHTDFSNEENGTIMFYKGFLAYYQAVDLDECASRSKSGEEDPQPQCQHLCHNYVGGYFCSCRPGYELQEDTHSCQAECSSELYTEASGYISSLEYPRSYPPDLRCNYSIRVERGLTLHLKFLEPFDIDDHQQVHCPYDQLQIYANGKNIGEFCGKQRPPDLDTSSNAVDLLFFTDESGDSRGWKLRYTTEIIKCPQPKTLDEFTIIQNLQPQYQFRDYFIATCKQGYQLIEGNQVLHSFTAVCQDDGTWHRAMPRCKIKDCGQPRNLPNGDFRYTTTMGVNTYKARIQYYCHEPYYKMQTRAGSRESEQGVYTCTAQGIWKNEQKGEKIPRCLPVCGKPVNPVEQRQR
Nature of the assay: Anti-C1 esterase (C1r) activity (hydrolysis of AAME). The class given is biochemical. The conditions noted are these: for IC50: AAME hydrolysis, read-out: Anti-C1 activity, C1r ID50. The method, then:
The anti-Cl esterase ([…]) activity was determined according to the method of Okamura et al. [K. Okamura, M. Muramatsu and S. Fujii, Biochem. Biophys.

Assay [2] has as its target Plasmin (Homo sapiens, UniProt P00747). Nature of the assay: Anti-plasmin activity (hydrolysis of TAME). The class given is biochemical. The following applies: for IC50: molar concentration inhibiting 50% of TAME hydrolysis, read-out: Plasmin ID50. The method, then: (§1) The anti-trypsin, anti-plasmin, anti-kallikrein and anti-thrombin activities were determined according to the method of Muramatsu et al. [M. Muramatsu, T. Onishi, S. Makino, Y. Hayashi and S. Fujii, J. of Biochem., 58, 214 (1965)]. […] The compound No. corresponds to the compound number shown in Examples.

Assay [3] concerns complement mediated hemolysis. Kind of assay: Inhibition of complement mediated hemolysis. The format is cell-based.
Experimental: The principle of this method is based on the fact that hemolysis is caused by the activation of complement, when the latter is added to a complex (immune complex) of erythrocytes and the antibody thereof. The degree of hemolysis varies in proportion to the amount of complement added. Therefore, when a known amount of complement admixed with a C1 esterase inhibitor is used, the hemolysis must be suppressed in proportion to the inhibitory activity.
The target in assay [4] is T2, C1s (Homo sapiens, UniProt P09871).
T2 sequence (P09871 438-688 limits assumed): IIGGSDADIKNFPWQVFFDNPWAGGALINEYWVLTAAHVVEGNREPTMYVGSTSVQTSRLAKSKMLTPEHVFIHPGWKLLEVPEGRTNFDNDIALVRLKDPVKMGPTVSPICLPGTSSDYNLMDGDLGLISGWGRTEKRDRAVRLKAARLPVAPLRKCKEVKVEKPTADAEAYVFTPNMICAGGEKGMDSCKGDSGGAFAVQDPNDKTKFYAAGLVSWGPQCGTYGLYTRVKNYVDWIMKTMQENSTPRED
T2 sequence (P09871 16-437 partner limits assumed): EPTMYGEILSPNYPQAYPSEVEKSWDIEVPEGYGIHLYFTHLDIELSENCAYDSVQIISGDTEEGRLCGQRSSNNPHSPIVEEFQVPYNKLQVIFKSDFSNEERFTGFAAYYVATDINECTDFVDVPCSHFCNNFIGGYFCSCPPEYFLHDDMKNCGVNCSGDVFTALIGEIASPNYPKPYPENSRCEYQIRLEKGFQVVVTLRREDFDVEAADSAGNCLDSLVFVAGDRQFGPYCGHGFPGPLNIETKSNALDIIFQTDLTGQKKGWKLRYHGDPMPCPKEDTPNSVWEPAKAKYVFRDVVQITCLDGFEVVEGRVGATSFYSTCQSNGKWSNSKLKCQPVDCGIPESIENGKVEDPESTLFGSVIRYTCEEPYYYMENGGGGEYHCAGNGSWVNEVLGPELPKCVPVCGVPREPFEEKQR
Kind of assay: biochemical. The protocol:
The anti-Cl esterase (Clr, Cls) activity was determined according to the method of Okamura et al. [K. Okamura, M. Muramatsu and S. Fujii, Biochem. Biophys. […] The figures in Table 2 have the following meanings:
Cls: Molar concentration of the test compound which inhibits 50% of the ability of Cls to hydrolyse ATEE (acetyltyrosin ethyl ester).

The target of assay [5] is T3, Trypsin (Bos taurus, UniProt P00760).
T3 sequence (P00760 24-246): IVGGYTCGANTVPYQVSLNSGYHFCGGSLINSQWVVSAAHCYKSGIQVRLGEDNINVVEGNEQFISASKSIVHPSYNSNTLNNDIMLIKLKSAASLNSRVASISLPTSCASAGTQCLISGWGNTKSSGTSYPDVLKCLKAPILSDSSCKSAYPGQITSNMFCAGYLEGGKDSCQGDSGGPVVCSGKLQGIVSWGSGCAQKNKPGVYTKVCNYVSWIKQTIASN
Nature of the assay: Anti-trypsin activity (hydrolysis of TAME). The conditions noted are these: for IC50: molar concentration inhibiting 50% of TAME hydrolysis, read-out: Trypsin ID50. The class given is biochemical. The method, then:
as §1

Assay [6] concerns the target Thrombin (Homo sapiens, UniProt P00734). Kind of assay: biochemical. The following applies: for IC50: molar concentration inhibiting 50% of TAME hydrolysis, read-out: Thrombin ID50; for inhibition at 10 µM: at 1×10^-5 M, read-out: Thrombin percentage inhibition. The method, then:
The anti-trypsin, anti-plasmin, anti-kallikrein and anti-thrombin activities were determined according to the method of Muramatsu et al. [M. Muramatsu, T. Onishi, S. Makino, Y. Hayashi and S. Fujii, J. of Biochem., 58, 214 (1965)]. The data summarized in Table 1 are expressed in terms of molar concentration (ID50) of the test compound which inhibits 50% of the activity of each enzyme to hydrolyze TAME (tosylalginine methyl ester). The compound No. corresponds to the compound number shown in Examples.

Assay [7] relates to Kallikrein. Nature of the assay: Anti-kallikrein activity (hydrolysis of TAME). The following applies: at 1×10^-5 M. The class given is biochemical.
Setting [8] is: ATEE hydrolysis, read-out: Anti-C1 activity, C1s ID50.

Sequence of Plasmin (P00747 581-810 limits assumed, species assumed): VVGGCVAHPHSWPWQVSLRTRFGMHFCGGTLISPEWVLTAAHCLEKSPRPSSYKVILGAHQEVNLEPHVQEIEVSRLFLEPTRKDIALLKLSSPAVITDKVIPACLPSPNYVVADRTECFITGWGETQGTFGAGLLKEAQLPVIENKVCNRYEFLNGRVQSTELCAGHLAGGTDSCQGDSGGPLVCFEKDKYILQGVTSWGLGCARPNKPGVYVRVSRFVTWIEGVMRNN
Sequence of Plasmin (P00747 97-580 partner limits assumed, species assumed): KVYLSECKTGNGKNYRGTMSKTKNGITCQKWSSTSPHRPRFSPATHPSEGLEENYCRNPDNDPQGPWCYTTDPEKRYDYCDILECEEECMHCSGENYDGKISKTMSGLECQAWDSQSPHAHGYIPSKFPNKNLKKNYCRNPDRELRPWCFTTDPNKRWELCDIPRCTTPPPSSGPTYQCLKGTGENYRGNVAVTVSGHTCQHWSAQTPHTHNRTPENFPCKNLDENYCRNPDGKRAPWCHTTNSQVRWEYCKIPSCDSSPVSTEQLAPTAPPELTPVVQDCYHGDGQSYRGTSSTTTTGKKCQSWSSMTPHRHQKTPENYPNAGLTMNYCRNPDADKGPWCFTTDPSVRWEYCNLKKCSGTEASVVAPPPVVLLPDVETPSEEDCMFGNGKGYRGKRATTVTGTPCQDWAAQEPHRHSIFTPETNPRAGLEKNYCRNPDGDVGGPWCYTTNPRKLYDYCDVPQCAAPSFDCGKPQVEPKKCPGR

For `N#Cc1ccc(C(=O)Oc2ccc3cc(C(=N)N)ccc3c2)cc1` [Compound 19], the IC50 in assay [1] was found to be 4 µM; in assay [2] it was 3 µM; in assay [4] (setting [8]), 8 µM; in assay [6], 2 µM. Further, the “Inhibition of complement mediated hemolysis (%)” value (from here on “Inhibition … (%)”) in assay [3] (1 × 10^-4) was 98%; in assay [3] (1 × 10^-5), 86%; in assay [3] (1 × 10^-6), 22%; in assay [3] (1 × 10^-7) it was 1%. Further, in assay [5] (at 1×10^-5 M, read-out: Trypsin percentage inhibition), the inhibition at 10 µM is 47%. In assay [7], this molecule yielded a Kallikrein percentage inhibition of 11%.
On to `N=C(N)c1ccc2cc(OC(=O)c3cccc(C(F)(F)F)c3)ccc2c1` [Compound 33], for which the IC50 was 1 µM in assay [1], 3 µM in assay [2], 3 µM in assay [4] (setting [8]) and 8 µM in assay [5]. In addition, the “Inhibition … (%)” value is 75% in assay [3] (1 × 10^-4), 39% in assay [3] (1 × 10^-5), 7% in assay [3] (1 × 10^-6) and 22% in assay [3] (1 × 10^-7). The inhibition at 10 µM in assay [6] came out at 40%. In assay [7], the Kallikrein percentage inhibition was determined as 13%.
`CC(=O)c1ccc(C(=O)Oc2ccc3cc(C(=N)N)ccc3c2)cc1` [Compound 32]: the IC50 amounted to 2 µM in assay [1]; 3 µM in assay [2]; 3 µM in assay [4] (setting [8]); 2 µM in assay [5]; 4 µM in assay [6]. Further, the “Inhibition … (%)” value is on record as 93% in assay [3] (1 × 10^-4), 97% in assay [3] (1 × 10^-5), 67% in assay [3] (1 × 10^-6) and 22% in assay [3] (1 × 10^-7). In assay [7], this molecule registered a Kallikrein percentage inhibition of 26%.
Consider `N=C(N)c1ccc2cc(OC(=O)c3ccc(Cl)cc3)ccc2c1` [Compound 16], for which the inhibition at 10 µM is 39% in assay [1] (at 1×10^-5 M, read-out: Anti-C1 activity, C1r percent inhibition) and 38% in assay [6]. The IC50 in assay [2] came out at 0.5 µM; in assay [4] (setting [8]), 0.4 µM; in assay [5] it was 3 µM. Besides, the “Inhibition … (%)” value in assay [3] (1 × 10^-4) came to 99%; in assay [3] (1 × 10^-5), 77%; in assay [3] (1 × 10^-6), 24%; in assay [3] (1 × 10^-7), 10%. Further, the Kallikrein percentage inhibition in assay [7] came out at 31%.
As to `CN(C(=N)N)c1ccc(C(=O)Oc2ccc3cc(C(=N)N)ccc3c2)cc1` [Compound 28, 6-amidino-2-naphthyl 4-(Nα-methyl)guanidinobenzoate], the IC50 in assay [1] is 3 µM; in assay [2] it was 0.6 µM; in assay [4] (setting [8]) it was 0.3 µM; in assay [5] it was 0.6 µM. Moreover, the “Inhibition … (%)” value in assay [3] (1 × 10^-4) turned out to be 100%; in assay [3] (1 × 10^-5) it was 99%; in assay [3] (1 × 10^-6), 60%; in assay [3] (1 × 10^-7), 6%. Also, the inhibition at 10 µM in assay [6] is 17%. In assay [7], the Kallikrein percentage inhibition came out at 20%.
Turning to `Cc1cccc(C(=O)Oc2ccc3cc(C(=N)N)ccc3c2)c1` [Compound 3, 6-amidino-2-naphthyl 3-methylbenzoate], the IC50 in assay [1] is 1 µM; in assay [2], 4 µM; in assay [4] (setting [8]) it was 2 µM; in assay [5] it was 2 µM; in assay [6], 4 µM. The “Inhibition … (%)” value is listed as 97% in assay [3] (1 × 10^-4), 60% in assay [3] (1 × 10^-5), 8% in assay [3] (1 × 10^-6) and 11% in assay [3] (1 × 10^-7). Also, the Kallikrein percentage inhibition in assay [7] is 38%.
Turning to `N=C(N)c1ccc2cc(OC(=O)c3ccc(S(N)(=O)=O)cc3)ccc2c1` [Compound 29], the IC50 was 2 µM in assay [2], 10 µM in assay [5] and 2 µM in assay [6]. This molecule displayed a Kallikrein percentage inhibition in assay [7] of 42%.
For `N=C(N)c1ccc2cc(OC(=O)c3ccc(Br)cc3)ccc2c1` [Compound 17], the IC50 in assay [1] was 0.7 µM; in assay [2] it was 2 µM; in assay [4] (setting [8]), 0.5 µM; in assay [5], 4 µM. Further, the “Inhibition … (%)” value is 98% in assay [3] (1 × 10^-4), 72% in assay [3] (1 × 10^-5), 9% in assay [3] (1 × 10^-6) and 0% in assay [3] (1 × 10^-7). The same molecule gave a Kallikrein percentage inhibition in assay [7] of 23%.
In the case of `N=C(N)c1ccc2cc(OC(=O)c3ccc(F)cc3)ccc2c1` [Compound 15], the IC50 was determined as 1 µM in assay [2], 0.3 µM in assay [4], 3 µM in assay [5] and 2 µM in assay [6]. Besides, the “Inhibition … (%)” value in assay [3] (1 × 10^-4) is given as 98%; in assay [3] (1 × 10^-5), 89%; in assay [3] (1 × 10^-6), 23%; in assay [3] (1 × 10^-7), 2%. Also, the Kallikrein percentage inhibition in assay [7] was determined as 38%.
Turning to `COc1ccc(C(=O)Oc2ccc3cc(C(=N)N)ccc3c2)cc1` [Compound 7], the IC50 in assay [1] was determined as 0.1 µM; in assay [2] it was 3 µM; in assay [4] (setting [8]), 0.2 µM; in assay [6], 3 µM. Also, the “Inhibition … (%)” value was found to be 51% in assay [3] (1 × 10^-4), 78% in assay [3] (1 × 10^-5), 21% in assay [3] (1 × 10^-6) and 0% in assay [3] (1 × 10^-7). The Kallikrein percentage inhibition in assay [7] is on record as 46%.
In the case of `N=C(N)c1ccc2cc(OC(=O)c3ccc(OCc4ccccc4)cc3)ccc2c1` [Compound 9], the inhibition at 10 µM in assay [2] (at 1×10^-5 M, read-out: Plasmin percentage inhibition) amounted to 48%; in assay [6] it was 20%. In addition, in assay [5], the IC50 is 0.04 µM. For the same molecule, the Kallikrein percentage inhibition in assay [7] is recorded as 19%.
